# Measured values taken from patent US20020045771A1, “Family of canadensol taxanes, the semi-synthetic preparation and therapeutic use thereof” (Institut National de la Recherche Scientifique, priority 1996, published 2002).
# Entries after “also recorded” stand apart in the source; their conditions may differ.
# How the values were obtained:
# [1] = Toxicity in DA3 tumor-bearing BALB/c mice (body weight, mortality); settings: given twice at 40 mg/kg, iv
# Description: Animal. Female BALB/c mice (Charles River Inc.) were used to grow DA3 tumors. Mice were maintained at the Lady Davis Institute [LDI] Animal Care Facility.
# Treatment was initiated when tumors become palpable. Drug was given twice (day 1 and day 3) by iv. Control animals were given the same volume of saline solution. The dose of each drug was normalized to mouse body weight.
# Tumor measurement. animals were examined every day but the tumor growth was monitored every second or third day using calipers. Parameters measured are: tumor measured along the longest axis (length) and the perpendicular shortest axis (width) and the relative tumor volume (in cm^3) was calculated by the formula: [Length (cm)×(width cm)^2]/2. Tumors which reach the limit size permitted by the Canadian regulation on the use of laboratory animals, or showing any apparent distress or discomfort were immediately sacrificed independently of the experimental protocol [usually 2-3 cm^3 but this depend on animal status and the decision is taken by the animal room personnel]. Animals were subjected, on a daily basis, to general examination.
# [2] = system: DA3 mammary adenocarcinoma tumors; test: In vivo study using DA3 cell model (tumour volume); set-up: species or system mouse
# Description: Origin: The DA3 cell line used in this study was derived from a hyperplastic mammary outgrowth (preneoplastic lesion) treated with 7,12-dimethylbenzanthracene (DMBA). DMBA-treated explant was then transplanted into the mammary glands of a female BALB/c mouse, and the resulting tumor was used to establish the DA3 cell line. DA3 is an immunogenic and non-metastatic mammary adenocarcinoma.
# Source: The cell line used in our study was originally obtained from Dr. Medina in 1993. Stocks of these cells were generated and stored during early passages in liquid nitrogen. One vial from this early stock was cultured and cells generated were used to confirm the absence of viral and mycoplasma infections. Cells were then propagated and stocks of these cells were established and stored in liquid nitrogen for further studies with Dup compounds.
# Cell culture: DA3 cells were maintained in RPMI 1640 medium supplemented with 1M mercaptoethanol, 1M Hepes buffer solution, […] sodium pyruvate, 200 mM L-glutamine, 10 mM non-essential amino acids, 1M vitamins, 10% fetal bovine serum, 1% penicillin-streptomycin. Cells were maintained at 37° C. under 5% CO2.
# Animal. […] Mice were maintained at the Lady Davis Institute [LDI] Animal Care Facility.
# Tumor cell inoculation and treatments. After one week acclimatisation, mice were randomized into a group of 5 per cage. Cages were randomly assigned to specific experimental groups. The mice were then labeled by numbers using the “ear punching” method. DA3 cells were transplanted subcutaneously to mice, as a suspension of tumor cells [1×10^6 viable cells per 0.1 ml], in the right flank. All animals were inoculated at the same site.
# For tumor induction, cells were grown to 70% confluence in complete medium and then collected using trypsin-EDTA solution [0.05% trypsin, 0.53 mM EDTA-4Na in HBSS Ca^++, Mg^++ and NaHCO3 free]. cells were then centrifuged and washed three times with phosphate buffer solution and resuspended at a dilution of 0.1 to 1×10^6 cells/0.1 ml. […]
# tubulin = test: In vitro microtubule assay (tubulin polymerisation, absorbance at 350 nm); type: biochemical, calf; settings: for concentration dependence of tubulin polymerisation: 5 μM and 10 μM (FIG. 2); for enhancement of tubulin polymerisation / antimitotic activity: same concentration (10 μM), FIG. 3; for tubulin polymerisation / antimitotic activity compared with paclitaxel: same concentration (FIGS. 1-4)
# A2780 cells = test: MTT cytotoxicity assay; type: cell-based, human; settings: for % (absorbance relative to control) / Abs.: 72 h; for Abs.: absorbance at 570 nm (MTT); for IC50: A2780, 72 h continuous treatment, MTT
# Method: 1—Cell lines and cell culture. The human ovarian adenocarcinoma cell line A2780 was used to evaluate the antiproliferative activity of taxoids. These cells were grown in either RPMI medium supplemented with 10% fetal bovine serum and penicillin-streptomycin antibiotics. Cells were maintained in culture at 37° C. in an atmosphere of 5% CO2.
# 2—Cytotoxicity assay. Exponentially growing cells (2-3×10^3 cells/[…]) were seeded in 96-well plates and incubated for 16 h. Cells were then treated continuously with the extracts. 72 h later, cell survival was evaluated by replacing the culture media with […] fresh medium containing 10 mM 4-(2-hydroxyethyl)-1 -piperazineethamesulfonic acid buffer, pH 7.4. and […] of 2.5 mg/ml of 3-(4,5-dimethylthiazo-2-yl)-2,5-diphenyltetrazolium bromide (MTT) in PBS, pH 7.4, were then added. After as 3-4 h of incubation at 37° C., the medium and MTT were removed, and […] of DMSO was added to dissolve the precipitate of reduced MTT, followed by addition of […] glycine buffer (0.1M glycine plus 0.1M NaCl, pH 10.5). The formazan crystals were then dissolved and the absorbance was determined at 570 nm with a microplate reader (BIORAD, model 450). The MTT assay distinguished between viable and non-viable cells on the basis for the requirement of physiologically active mitochondria to metabolize the MTT only in viable cells. The IC50 was calculated as the concentration of drug causing a 50% inhibition in the absorbance compared to cells treated with solvent alone, Table I.
# [3] = listed as semi-synthetic Canadensol
Structure (SMILES),% (absorbance relative to control) (A2780 cells; 0.2 nM),Abs. (A2780 cells; 0.2 nM),% (absorbance relative to control) (A2780 cells; 2 nM),Abs. (A2780 cells; 2 nM),% (absorbance relative to control) (A2780 cells; 10 nM),Abs. (A2780 cells; 10 nM),% (absorbance relative to control) (A2780 cells; 20 nM),Abs. (A2780 cells; 20 nM),% (absorbance relative to control) (A2780 cells; 100 nM),Abs. (A2780 cells; 100 nM),% (absorbance relative to control) (A2780 cells; 200 nM),Abs. (A2780 cells; 200 nM),IC50 (A2780 cells; Homo sapiens),further results
CC(=O)OC1C(=O)[C@]2(C)C(O)CC3OCC3(OC(C)=O)C2C(OC(=O)c2ccccc2)C2(O)CC(OC(=O)C(O)C(NC(=O)C(C)C)c3ccccc3)C(C)=C1C2(C)C (some centres unmarked) [Canadensol],100.00%,1.598,94.12%,1.504,77.97%,1.246,50.81%,0.812,1.63%,0.026,1.13%,0.018,21.3 nM,"toxic effect [1]: No toxic effect was observed; period in which antitumor effect was significant ([2]; given twice at 40 mg/kg, iv): significant from day 30 to day 40 of tumor growth; antitumor activity ([2]; given twice at 40 mg/kg, iv, FIG. 9): induce antitumor activity; concentration dependence of tubulin polymerisation (tubulin): concentration dependent antimitotic effect; concentration dependence of tubulin polymerisation (tubulin; [3]): dose-dependent response; enhancement of tubulin polymerisation / antimitotic activity (tubulin): more effective; enhancement of tubulin polymerisation / antimitotic activity (tubulin; [3]): greater enhancement of tubulin polymerisation than semi-synthetic Taxcultine (ssT) or paclitaxel (P); tubulin polymerisation / antimitotic activity compared with paclitaxel (tubulin): more active than paclitaxel and taxcultine; also recorded: higher antimitotic activity than paclitaxel; tubulin polymerisation / antimitotic activity compared with paclitaxel (tubulin; [3]): higher degree of tubulin polymerisation than Paclitaxel; inhibiting the growth of A2780 (comparison) (A2780 cells; FIGS. 6, 7 and Table I): as active as paclitaxel or taxcultine"
CC(=O)O[C@H]1C(=O)[C@@]2(C)[C@H]([C@H](OC(=O)c3ccccc3)[C@]3(O)C[C@H](OC(=O)[C@H](O)[C@@H](NC(=O)c4ccccc4)c4ccccc4)C(C)=C1C3(C)C)[C@]1(OC(C)=O)CO[C@@H]1C[C@@H]2O [paclitaxel],101.54%,1.455,102.16%,1.464,81.09%,1.162,36.43%,0.522,1.47%,0.021,1.40%,0.02,17 nM,"antitumor activity ([2]; tolerable doses (20-40 mg/Kg), iv day 1 and day 3): no significant antitumor activity"
CCCC(=O)N[C@@H](c1ccccc1)[C@@H](O)C(=O)O[C@H]1C[C@@]2(O)[C@@H](OC(=O)c3ccccc3)[C@@H]3[C@]4(OC(C)=O)CO[C@@H]4C[C@H](O)[C@@]3(C)C(=O)[C@H](OC(C)=O)C(=C1C)C2(C)C [taxcultine],100.00%,1.535,100.07%,1.536,71.21%,1.093,36.09%,0.554,2.08%,0.032,1.43%,0.022,–,IC50 (A2780 cells): 16 nM
